Results as given in US20030232747A1, “Method of identifying a pharmaceutically active compound for the treatment of a condition caused by altered expression of the insulin receptor” (priority 2002, published 2003).

Experiments:
[1] = Organ weights after castration and testosterone replacement in young rats; assay type: in vivo, rat
Method: Pellets for testosterone-or placebo-implantation were received from Innovative Research of America, Sarasota, Fla., USA. To evaluate the effects of castration and testosterone replacement male wistar rats (3 months, n=21) were divided into three groups: Group 1, intact (shame operated, given a placebo-pellet by implantation under the dorsal skin, n=7), group 2, castrated (implantation of placebo-pellet, n=7) and group 3, castrated, but given a testosterone-implantate of 15 mg (n=7). 3 weeks after treatment rats were killed and penile tissue as well as blood samples were treated as described in example 1. The experimental study was conducted in accordance with the general federal law on the care and use of laboratory animals.
It was noted that the level of testosterone in the serum of young versus old rats were 4.436±1.1 and 0.57±0.17 ng/ml (mean±SD, n=4) respectively, pointing to a drop in the level of testosterone in circulation of aged animals. This is in agreement with Zirkins lab (Zirkin et al., Exp. Gerontol. 32:529-537 (1997); Zirkin and Chen, Biol. Reprod. 63:977-981 (2000)). In order to discern if the observed ageing related alteration in the expression of two splice variants of insulin receptor mRNA could be due to a declining androgen level in the ageing rats, we have performed orchiedectomy on young rats. One group of castrated rats received androgen releasing subcutanous implant. […] The effect of castration and andorgen-replacement of the insulin receptor mRNA expression in penile tissue of young rats is presented in FIG. 4a. […] Following castration, the appearance of the smaller splice variant was observed, the pattern resembling the old animals.

[2] = tested on: insulin receptor mRNA splice variants Ex11+/Ex11-; assay: RT-PCR and densitometric analysis of insulin receptor mRNA splice variants in penile tissue after castration and testosterone replacement; assay type: in vivo, rat
Method: Tissue samples (100-200 mg) were pulverized in liquid nitrogen. Total RNA was isolated using guanidium thocyanate, phenol-chloroform extraction (pecLab, Erlangen, Germany). The RNA was precipitated with isopropanol at −20° C. for 2 h, washed with 75% ethanol, dissolved in diethylpyrocarbonate water and quantified spectrometrically at 260 nm. The ratio of absorption of all preparations was between 1.8 and 2.0. To ensure that concentration was identical in each sample, the intensity of 28 sRNA was compared on an 1% agarose gelectrophoresis after ethidium bromide staining. Total RNA was stored at −80° C. until further use.
First strand cDNA synthesis was carried out using a commercially available kit (Gibco BRL). Briefly, 4 μg of total RNA was primed with 0,5 μg of oligo(dT)12-18 and incubated 10 min at 70° C. For each sample lx first strand puffer, 0,2M DTT, 10 mM dNTP's and 200U of Superscript II reverse transcriptase were added. Reverse transcription was performed at 42° C. for 50 min and stopped by heating for 15 min. at 70° C. The resulting cDNA templates were stored at −20° C. or directly used for PCR.
After a denaturation period of 3 min the PCR reaction was followed by 35 cycles of 95° C. for 60 sec., 60° C. for 60 sec. and 72° C. for 60 sec. PCR was performed with 6 μl cDNA, 10 mM of each dNTP, 5U Taq-Polymerase (Biotherm) and 50 pmol of both sense and antisense primers in PCR buffer. The final volume of each reaction was 50 μl. Reaction products (15 μl) were run on a 2.5% agarose gel. Primers used for PCR were: […]
Densitometric analysis of the insulin receptor mRNA splice variant levels was performed using the Image Quant 5.0 software.
For the proportion of the two insulin receptor variant mRNA levels, significance of the difference of the mean values was determined by unpaired student's t-test. The threshold for signigicance was set at p<0.05.
Pellets for testosterone-or placebo-implantation were received from Innovative Research of America, Sarasota, Fla., USA. […]

[3] = young (3 months) castrated male wistar rats, testosterone implant 15 mg, 3 weeks after treatment, n=7
[4] = young castrated rats with androgen supplementation (testosterone implant 15 mg), 3 weeks, FIG. 4b

C[C@]12CC[C@H]3[C@@H](CCC4=CC(=O)CC[C@@]43C)[C@@H]1CC[C@@H]2O [testosterone]
Penis weight in relation to body weight [1, 3]: 78.55 ± 5.54 mg/100 g body weight
Prostate weight in relation to body weight [1, 3]: 92.37 ± 33.89 mg/100 g body weight
Effect on castration-induced reduction of penis and prostate weight (in words) ([1]; young castrated rats, testosterone replacement): induced a reversal of this effect in both organs
Relative proportion of Ex11+ insulin receptor mRNA in penis [2, 4]: 22.8%
Relative proportion of Ex11- insulin receptor mRNA in penis [2, 4]: 77.2%
Appearance of the smaller insulin receptor splice variant (Ex11-) in penile tissue (in words) ([2]; young castrated rats with androgen supplementation, FIG. 4a): this isoform persisted
